From BindingDB's records for doi:10.3109/14756366.2012.668539 (Federal University of São Paulo, 2013)

Target: T1, Papain (Carica papaya, UniProt P00784)
T1 sequence (P00784 whole entry): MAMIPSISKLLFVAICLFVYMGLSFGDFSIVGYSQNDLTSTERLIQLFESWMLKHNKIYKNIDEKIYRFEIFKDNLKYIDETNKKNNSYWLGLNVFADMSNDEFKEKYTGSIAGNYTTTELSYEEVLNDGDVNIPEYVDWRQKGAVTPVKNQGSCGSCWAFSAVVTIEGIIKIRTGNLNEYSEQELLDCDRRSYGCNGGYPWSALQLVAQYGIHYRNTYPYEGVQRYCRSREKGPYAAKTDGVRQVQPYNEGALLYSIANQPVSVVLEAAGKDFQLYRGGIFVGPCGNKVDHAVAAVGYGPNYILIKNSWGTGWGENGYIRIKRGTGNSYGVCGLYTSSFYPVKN
Assay: Kinetic Assay
Method: To characterize the type and extent inhibition of papain by fukugetin, papain (0.04 nM) was incubated with four concentrations of fukugetin (1.5, 3, 6 and 12μM). For cruzain, enzyme concentration was 12 nM and inhibitor concentrations varied from 1 μM to 10 μM. Analysis of enzyme kinetic data was carried out using the Lineweaver-Burk plot30 in Grafit 5.0 software. Hydrolytic activity was measured […], mixing fukugetin and enzymes by addition growingconcentrations of Cbz-Phe-Arg-MCA (0.5-22 μM).

Ki: 13.4 µM
Structure (SMILES): O=C1c2c(O)cc(O)cc2OC(c2ccc(O)cc2)C1c1c(O)cc(O)c2c(=O)cc(-c3ccc(O)c(O)c3)oc12 (stereo unspecified) [Fukugetin]
